pEC50: −log10 of the molar value.

A short description of this assay: Tet-Inducible cAMP Assay: A human-mouse chimeric GPR119 expression construct encoding 3 copies of the FLAG epitope tag, the first 198 amino acids of human GPR119 and the C-terminal 137 amino acids of the mouse receptor was cloned into a tetracycline inducible vector pcDNA5/FRT/TO (Invitrogen #V6520-20), which includes a hygromycin-resistance marker. Tightly controlled receptor expression was achieved by stable integration of this construct into the genome of a specific host cell line, Flp-In-T-Rex-HEK293, expressing the tetracycline repressor (Invitrogen). Once a stable hygromycin-resistant cell line was generated, the cells were maintained at 37° C. in a humidified 5% CO2 atmosphere in culture medium consisting of Dulbecco's modified Eagle's medium (DMEM; Invitrogen #11960) supplemented with 2 mM L-glutamine, 10% fetal bovine serum, 200 μg/ml hygromycin B, and 15 μg/ml blasticidin.
On to `Cc1nc(-n2cc(Cl)c(OC3CCN(c4ncc(Cl)cn4)CC3)cc2=O)ccc1N1CCC(O)C1=O` (stereo not drawn), for which the pEC50 is 8.70. Consider `Cc1nc(-n2cc(Cl)c(OC3CCN(c4ncc(Cl)cn4)CC3)cc2=O)ccc1N1CC[C@@H](O)C1=O`, for which the pEC50 was 8.52.

Regarding `Cc1nc(-n2ccc(OC3CCN(c4ncc(Cl)cn4)CC3)cc2=O)ccc1N1CCC(O)C1=O` (stereo not drawn), the negative logarithm of the EC50 (pEC50) is 8.00.

For orientation: pEC50 means the negative decadic logarithm of the EC50, by convention in mol/L.
